Tested on: MV-4-11 cells
Experiment: Gene expression microarray analysis (Affymetrix PrimeView) and GSEA
Type: cell-based, human
Design: RFU PODN (11730768_x_at) / Fold change /veh PODN (11730768_x_at) / RFU LINC00158 (11744669_a_at) / Fold change /veh LINC00158 (11744669_a_at) / RFU DUSP10 (11751237_a_at) / Fold change /veh DUSP10 (11751237_a_at) / RFU ID3 (11757404_x_at) / Fold change /veh ID3 (11757404_x_at) / RFU PLEKHG5 (11737974_s_at) / Fold change /veh PLEKHG5 (11737974_s_at) / RFU LRRC4B (11730491_at) / Fold change /veh LRRC4B (11730491_at) / RFU GIMAP4 (11747438_a_at) / Fold change /veh GIMAP4 (11747438_a_at) / RFU KRT8 (11758183_x_at) / Fold change /veh KRT8 (11758183_x_at) / RFU CNN1 (11734310_a_at) / Fold change /veh CNN1 (11734310_a_at) / RFU VPS37D (11726825_at) / Fold change /veh VPS37D (11726825_at) / RFU C10orf10 (11716522_x_at) / Fold change /veh C10orf10 (11716522_x_at) / RFU KIR2DL2 /// KIR2DL4 /// KIR2DL5A /// KIR2DL5B /// KIR2DS1 /// KIR2DS2 /// KIR2DS3 /// KIR2DS4 /// KIR3DL3 /// KIR3DL3 /// KIR3DS1 (11738374_at) / Fold change /veh KIR2DL2 /// KIR2DL4 /// KIR2DL5A /// KIR2DL5B /// KIR2DS1 /// KIR2DS2 /// KIR2DS3 /// KIR2DS4 /// KIR3DL3 /// KIR3DL3 /// KIR3DS1 (11738374_at) / RFU C1QL1 (11718748_at) / Fold change /veh C1QL1 (11718748_at) / RFU TMPRSS4 (11747572_a_at) / Fold change /veh TMPRSS4 (11747572_a_at) / RFU HAMP (11756126_x_at) / Fold change /veh HAMP (11756126_x_at) / RFU RNFT2 (11725882_a_at) / Fold change /veh RNFT2 (11725882_a_at) / RFU NR4A2 (11747474_a_at) / Fold change /veh NR4A2 (11747474_a_at) / RFU ABCC12 (11746883_a_at) / Fold change /veh ABCC12 (11746883_a_at) / RFU TMEM136 (11760407_x_at) / Fold change /veh TMEM136 (11760407_x_at) / RFU CLDN22 /// WWC2 (11732394_at) / Fold change /veh CLDN22 /// WWC2 (11732394_at) / RFU HLA-DPB1 (11760878_x_at) / Fold change /veh HLA-DPB1 (11760878_x_at) / RFU SPINT1 (11716480_a_at) / Fold change /veh SPINT1 (11716480_a_at) / RFU GAP43 (11754022_s_at) / Fold change /veh GAP43 (11754022_s_at) / RFU A4GNT (11735810_at) / Fold change /veh A4GNT (11735810_at) / RFU PRB3 (11715151_x_at) / Fold change /veh PRB3 (11715151_x_at) / RFU TUBB4B (11761932_at) / Fold change /veh TUBB4B (11761932_at) / RFU CAPN14 (11732068_a_at) / Fold change /veh CAPN14 (11732068_a_at) / RFU TMCC2 (11721928_a_at) / Fold change /veh TMCC2 (11721928_a_at) / RFU IRGQ (11745062_a_at) / Fold change /veh IRGQ (11745062_a_at) / RFU FAM174B (11720279_a_at) / Fold change /veh FAM174B (11720279_a_at) / RFU TMPRSS4 (11748680_a_at) / Fold change /veh TMPRSS4 (11748680_a_at) / RFU FAM212B (11763350_a_at) / Fold change /veh FAM212B (11763350_a_at) / RFU PLEKHG5 (11743358_a_at) / Fold change /veh PLEKHG5 (11743358_a_at) / RFU ZSCAN30 (11745921_a_at) / Fold change /veh ZSCAN30 (11745921_a_at) / RFU CMKLR1 (11741424_a_at) / Fold change /veh CMKLR1 (11741424_a_at) / RFU LOC101060620 /// MAPK8IP1 (11723275_at) / Fold change /veh LOC101060620 /// MAPK8IP1 (11723275_at) / RFU SPTSSB (11747773_x_at) / Fold change /veh SPTSSB (11747773_x_at) / RFU PRSS12 (11739890_at) / Fold change /veh PRSS12 (11739890_at) / RFU BIN1 (11741810_x_at) / Fold change /veh BIN1 (11741810_x_at) / RFU WNT11 (11732464_a_at) / Fold change /veh WNT11 (11732464_a_at) / RFU C10orf10 (11716521_a_at) / Fold change /veh C10orf10 (11716521_a_at) / RFU C5orf56 (11738089_at) / Fold change /veh C5orf56 (11738089_at) / RFU CYB561 (11721691_x_at) / Fold change /veh CYB561 (11721691_x_at) / RFU ANKRD19P (11752326_a_at) / Fold change /veh ANKRD19P (11752326_a_at) / RFU OR2T12 /// OR2T33 /// OR2T8 (11738714_s_at) / Fold change /veh OR2T12 /// OR2T33 /// OR2T8 (11738714_s_at) / RFU VCAN (11748164_a_at) / Fold change /veh VCAN (11748164_a_at) / RFU JSRP1 (11732532_at) / Fold change /veh JSRP1 (11732532_at) / RFU KRTAP10-11 (11738290_x_at) / Fold change /veh KRTAP10-11 (11738290_x_at) / RFU MYO3A (11730013_a_at) / Fold change /veh MYO3A (11730013_a_at) / RFU EBF3 (11725865_a_at) / Fold change /veh EBF3 (11725865_a_at) / RFU CAMK2N1 (11719241_x_at) / Fold change /veh CAMK2N1 (11719241_x_at) / RFU C5orf56 (11738088_a_at) / Fold change /veh C5orf56 (11738088_a_at) / RFU OLFML3 (11715873_a_at) / Fold change /veh OLFML3 (11715873_a_at) / RFU LOC100653217 /// NTM (11731650_a_at) / Fold change /veh LOC100653217 /// NTM (11731650_a_at) / RFU MAPK11 (11762145_a_at) / Fold change /veh MAPK11 (11762145_a_at) / RFU FIZ1 (11724087_x_at) / Fold change /veh FIZ1 (11724087_x_at) / RFU OASL (11726364_x_at) / Fold change /veh OASL (11726364_x_at) / RFU SOX15 (11748057_x_at) / Fold change /veh SOX15 (11748057_x_at) / RFU CD79A (11719716_a_at) / Fold change /veh CD79A (11719716_a_at) / RFU HIST1H1D (11736915_at) / Fold change /veh HIST1H1D (11736915_at) / RFU CASKIN2 (11723855_a_at) / Fold change /veh CASKIN2 (11723855_a_at) / RFU LOC730098 (11760151_x_at) / Fold change /veh LOC730098 (11760151_x_at) / RFU OR4N2 (11742367_at) / Fold change /veh OR4N2 (11742367_at) / RFU PRRT2 (11749266_a_at) / Fold change /veh PRRT2 (11749266_a_at) / RFU SNX32 (11753110_a_at) / Fold change /veh SNX32 (11753110_a_at) / RFU CDHR5 (11726645_a_at) / Fold change /veh CDHR5 (11726645_a_at) / RFU RCAN1 (11760418_a_at) / Fold change /veh RCAN1 (11760418_a_at) / RFU FAM167A (11723789_a_at) / Fold change /veh FAM167A (11723789_a_at) / RFU FAM26E (11764081_at) / Fold change /veh FAM26E (11764081_at) / RFU ISYNA1 (11749810_s_at) / Fold change /veh ISYNA1 (11749810_s_at) / RFU ACY1 (11761880_at) / Fold change /veh ACY1 (11761880_at) / RFU 11764098_at / Fold change /veh 11764098_at / RFU SAMD14 (11745864_x_at) / Fold change /veh SAMD14 (11745864_x_at) / RFU NPB (11741838_a_at) / Fold change /veh NPB (11741838_a_at) / RFU TMPRSS6 (11731388_a_at) / Fold change /veh TMPRSS6 (11731388_a_at) / RFU KRTAP10-2 (11738614_at) / Fold change /veh KRTAP10-2 (11738614_at) / RFU ARHGAP8 /// PRR5-ARHGAP8 (11727945_x_at) / Fold change /veh ARHGAP8 /// PRR5-ARHGAP8 (11727945_x_at) / RFU KRTAP5-7 /// NADSYN1 (11734609_at) / Fold change /veh KRTAP5-7 /// NADSYN1 (11734609_at) / RFU RASL12 (11751679_a_at) / Fold change /veh RASL12 (11751679_a_at) / RFU CDKN2B (11736163_a_at) / Fold change /veh CDKN2B (11736163_a_at) / RFU PRF1 (11729649_at) / Fold change /veh PRF1 (11729649_at) / RFU, ZNF638 /// ZNF638-IT1 / Fold change vs veh, ZNF638 /// ZNF638-IT1 / RFU, PANK3 / Fold change vs veh, PANK3 / RFU, SH3YL1 / Fold change vs veh, SH3YL1 / RFU, ZEB2 / Fold change vs veh, ZEB2 / RFU, NRIP1 / Fold change vs veh, NRIP1 / RFU, PTTG1IP / Fold change vs veh, PTTG1IP / RFU, CAPN2 / Fold change vs veh, CAPN2 / RFU, MED14 / Fold change vs veh, MED14 / RFU, SNORA58 / Fold change vs veh, SNORA58 / RFU, C1orf63 / Fold change vs veh, C1orf63 / RFU, LRRFIP1 / Fold change vs veh, LRRFIP1 / RFU, NDUFAF7 / Fold change vs veh, NDUFAF7 / RFU, SLC12A2 / Fold change vs veh, SLC12A2 / RFU, IBTK / Fold change vs veh, IBTK / RFU, ESF1 / Fold change vs veh, ESF1 / Fold change vs veh, TMEM50B / RFU, TAOK1 / Fold change vs veh, TAOK1 / RFU, ACBD3 / Fold change vs veh, ACBD3 / RFU, TMA16 / Fold change vs veh, TMA16 / RFU, RWDD3 / Fold change vs veh, RWDD3 / RFU, BCAT1 / Fold change vs veh, BCAT1 / RFU, EDEM3 / Fold change vs veh, EDEM3 / RFU, TMEM33 / Fold change vs veh, TMEM33 / RFU, WDR75 / Fold change vs veh, WDR75 / RFU, AHCTF1 / Fold change vs veh, AHCTF1 / RFU, TFRC / Fold change vs veh, TFRC / RFU, ZDHHC17 / Fold change vs veh, ZDHHC17 / RFU, NOM1 / Fold change vs veh, NOM1 / RFU, ARL8B / Fold change vs veh, ARL8B / RFU, ZBTB11 / Fold change vs veh, ZBTB11 / RFU, TAMM41 / Fold change vs veh, TAMM41 / RFU, KIAA1704 /// LOC100996395 / Fold change vs veh, KIAA1704 /// LOC100996395 / RFU, ING1 / Fold change vs veh, ING1 / RFU, TRMT61B / Fold change vs veh, TRMT61B / RFU, FUBP3 / Fold change vs veh, FUBP3 / RFU, TP53 / Fold change vs veh, TP53 / RFU, TNKS2 / Fold change vs veh, TNKS2 / RFU, ZFP14 / Fold change vs veh, ZFP14 / RFU, ACTR2 / Fold change vs veh, ACTR2 / RFU, PPP3R1 / Fold change vs veh, PPP3R1 / RFU, PIK3R1 / Fold change vs veh, PIK3R1 / RFU, HNRNPA1 / Fold change vs veh, HNRNPA1 / RFU, RNF170 / Fold change vs veh, RNF170 / RFU, ZNF28 / Fold change vs veh, ZNF28 / RFU, RNGTT / Fold change vs veh, RNGTT / RFU, OGT / Fold change vs veh, OGT / RFU, BRD1 / Fold change vs veh, BRD1 / RFU, MARS / Fold change vs veh, MARS / RFU, ZNF655 / Fold change vs veh, ZNF655 / RFU, FAHD1 / Fold change vs veh, FAHD1 / RFU, BDP1 / Fold change vs veh, BDP1 / RFU, LRRCC1 / Fold change vs veh, LRRCC1 / RFU, ARID1A / Fold change vs veh, ARID1A / RFU, ZNF146 / Fold change vs veh, ZNF146 / RFU, ZNF330 / Fold change vs veh, ZNF330 / RFU, GPN3 / Fold change vs veh, GPN3 / RFU, C9orf123 / Fold change vs veh, C9orf123 / RFU, N4BP2L2 / Fold change vs veh, N4BP2L2 / RFU, ARFIP1 / Fold change vs veh, ARFIP1 / RFU, FAM179B / Fold change vs veh, FAM179B / RFU, BCL10 / Fold change vs veh, BCL10 / RFU, UHRF1BP1L / Fold change vs veh, UHRF1BP1L / RFU, BET1 / Fold change vs veh, BET1 / RFU, CNOT2 / Fold change vs veh, CNOT2 / RFU, ZNF268 / Fold change vs veh, ZNF268 / Fold change vs veh, ZNF507 / RFU, DGCR2 / Fold change vs veh, DGCR2 / RFU, WDSUB1 / Fold change vs veh, WDSUB1 / Fold change vs veh, HSP90B1 /// MIR3652 / RFU, ADSS / Fold change vs veh, ADSS / RFU, GK / Fold change vs veh, GK / RFU, ZNF148 / Fold change vs veh, ZNF148 / RFU, TAF9 / Fold change vs veh, TAF9 / RFU, SLC1A5 / Fold change vs veh, SLC1A5 / RFU, SLMO2 / Fold change vs veh, SLMO2 / RFU, ABCC4 / Fold change vs veh, ABCC4 / RFU, LOC101060439 /// RAP1B / Fold change vs veh, LOC101060439 /// RAP1B / RFU, RFX7 / Fold change vs veh, RFX7 / RFU, GTPBP10 / Fold change vs veh, GTPBP10 / RFU, CNEP1R1 / Fold change vs veh, CNEP1R1 / RFU, BIVM-ERCC5 /// ERCC5 / Fold change vs veh, BIVM-ERCC5 /// ERCC5 / RFU, ILF3 / Fold change vs veh, ILF3 / RFU 11762660_at / Fold change /veh 11762660_at / RFU VCAN (11757783_s_at) / Fold change /veh VCAN (11757783_s_at) / RFU DDX43 (11728927_at) / Fold change /veh DDX43 (11728927_at) / RFU KRT8 (11758188_x_at) / Fold change /veh KRT8 (11758188_x_at) / RFU NKD1 (11759106_at) / Fold change /veh NKD1 (11759106_at) / RFU SRD5A1 (11742802_a_at) / Fold change /veh SRD5A1 (11742802_a_at) / RFU TPSAB1 /// TPSB2 (11721975_s_at) / Fold change /veh TPSAB1 /// TPSB2 (11721975_s_at) / RFU GSTM3 (11746129_a_at) / Fold change /veh GSTM3 (11746129_a_at) / RFU IL23R (11737362_x_at) / Fold change /veh IL23R (11737362_x_at) / RFU TMEM51 (11727254_a_at) / Fold change /veh TMEM51 (11727254_a_at) / RFU PIWIL2 (11732686_x_at) / Fold change /veh PIWIL2 (11732686_x_at) / RFU ORM1 (11744905_x_at) / Fold change /veh ORM1 (11744905_x_at) / RFU CCDC152 (11743942_at) / Fold change /veh CCDC152 (11743942_at) / RFU ECM1 (11717891_a_at) / Fold change /veh ECM1 (11717891_a_at) / RFU IL23R (11748794_a_at) / Fold change /veh IL23R (11748794_a_at) / RFU TNFAIP8L3 (11732012_x_at) / Fold change /veh TNFAIP8L3 (11732012_x_at) / RFU MBOAT4 (11741988_at) / Fold change /veh MBOAT4 (11741988_at) / RFU 11764193_at / Fold change /veh 11764193_at / RFU TMEM53 (11763286_at) / Fold change /veh TMEM53 (11763286_at) / RFU MAGEB2 (11727129_at) / Fold change /veh MAGEB2 (11727129_at) / RFU TMEM200A (11744735_a_at) / Fold change /veh TMEM200A (11744735_a_at) / RFU CCDC152 (11751479_a_at) / Fold change /veh CCDC152 (11751479_a_at) / RFU FAM211A (11726209_a_at) / Fold change /veh FAM211A (11726209_a_at) / RFU RGS16 (11746705_a_at) / Fold change /veh RGS16 (11746705_a_at) / RFU VCAN (11755009_s_at) / Fold change /veh VCAN (11755009_s_at) / RFU RHOB (11743442_s_at) / Fold change /veh RHOB (11743442_s_at) / RFU RGS16 (11720943_a_at) / Fold change /veh RGS16 (11720943_a_at) / RFU RGS16 (11720944_at) / Fold change /veh RGS16 (11720944_at) / RFU, VPS4B / Fold change vs veh, VPS4B / RFU, CREB1 / Fold change vs veh, CREB1 / RFU, DNAJC13 / Fold change vs veh, DNAJC13 / RFU, GNAQ / Fold change vs veh, GNAQ / RFU, CDK5R1 / Fold change vs veh, CDK5R1 / RFU, ZRANB3 / Fold change vs veh, ZRANB3 / RFU, CUL4A / Fold change vs veh, CUL4A / RFU, CCNY / Fold change vs veh, CCNY / RFU, UFL1 / Fold change vs veh, UFL1 / RFU, COG3 / Fold change vs veh, COG3 / RFU, DIAPH2 / Fold change vs veh, DIAPH2 / RFU, SKA2 / Fold change vs veh, SKA2 / RFU, AFF3 / Fold change vs veh, AFF3 / RFU, LMF1 / Fold change vs veh, LMF1 / RFU, IPO11 / Fold change vs veh, IPO11 / RFU, DFFB / Fold change vs veh, DFFB / RFU, FOXP1 / Fold change vs veh, FOXP1 / RFU, CARD8 / Fold change vs veh, CARD8 / RFU, STRN3 / Fold change vs veh, STRN3 / RFU, ADK / Fold change vs veh, ADK / RFU, RASSF2 / Fold change vs veh, RASSF2 / RFU, WIPF1 / Fold change vs veh, WIPF1 / RFU, LARP1B / Fold change vs veh, LARP1B / RFU, RASA1 / Fold change vs veh, RASA1 / RFU, RB1 / Fold change vs veh, RB1 / RFU, PPFIA1 / Fold change vs veh, PPFIA1 / RFU, MAT2A / Fold change vs veh, MAT2A / RFU, CCT5 / Fold change vs veh, CCT5 / RFU, WDR92 / Fold change vs veh, WDR92 / RFU, CUX1 / Fold change vs veh, CUX1 / RFU, TTC7A / Fold change vs veh, TTC7A / RFU, TMEM135 / Fold change vs veh, TMEM135 / RFU, DEPTOR / Fold change vs veh, DEPTOR / RFU, CPM / Fold change vs veh, CPM / RFU, DNAJB6 / Fold change vs veh, DNAJB6 / RFU, CACNA2D3 / Fold change vs veh, CACNA2D3 / RFU, DTX4 / Fold change vs veh, DTX4 / RFU, TFCP2 / Fold change vs veh, TFCP2 / RFU, GMCL1 /// GMCL1P1 / Fold change vs veh, GMCL1 /// GMCL1P1 / RFU, AEBP2 / Fold change vs veh, AEBP2 / RFU, SNHG1 /// SNORD22 /// SNORD25 /// SNORD26 /// SNORD27 /// SNORD28 /// SNORD29 /// SNORD31 / Fold change vs veh, SNHG1 /// SNORD22 /// SNORD25 /// SNORD26 /// SNORD27 /// SNORD28 /// SNORD29 /// SNORD31 / Fold change (Aza/veh), C12orf56 (ProbeSet 11735607_a_at) / Fold change (ACY-1035/veh), C12orf56 (ProbeSet 11735607_a_at) / Fold change (Aza/veh), FGFR1OP (ProbeSet 11751329_s_at) / Fold change (ACY-1035/veh), FGFR1OP (ProbeSet 11751329_s_at) / Fold change (Aza/veh), VPS36 (ProbeSet 11739960_a_at) / Fold change (ACY-1035/veh), VPS36 (ProbeSet 11739960_a_at) / RFU SYPL1 (11715823_x_at) / Fold change /veh SYPL1 (11715823_x_at) / RFU IGFBP7 (11715501_s_at) / Fold change /veh IGFBP7 (11715501_s_at) / RFU REEP3 (11722064_at) / Fold change /veh REEP3 (11722064_at) / RFU IGLL1 (11728026_x_at) / Fold change /veh IGLL1 (11728026_x_at): dose or concentration left out as unconfirmed
Settings: MV-4-11 cells, 48 hours

Nc1ccc(-c2cccs2)cc1NC(=O)c1ccc2c(c1)cc(C1CC1)n2CCN1CCOCC1 [ACY-1035]
Fold change /veh 11764193_at: 1.19
